Source: patent US20260285850A1, “SUBSTITUTED OXAZOLIDINONES AND IMIDAZOLINONES AS HERBICIDES” (FMC CORPORATION, priority 2023, published 2026)

Tests used:
Type in all cases: in vivo
[1] = test system: ducksalad (Heteranthera limosa); assay: Test B flooded paddy test, visual plant response rating 0-100; settings: 250 g ai/ha, Flood, applied to paddy water, evaluated after 13 days
Procedure, shortened: (§1)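 Compounds applied to standing paddy water (3 cm above soil, maintained for the test duration) on 2-leaf-stage plants; visual rating vs controls at 13 days, greenhouse.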

[2] = test system: sedge, umbrella (small-flower umbrella sedge, Cyperus difformis); assay: as above; settings: 250 g ai/ha, Flood, applied to paddy water, evaluated after 13 days
Procedure, shortened: as §1

[3] = test system: rice (Oryza sativa); assay: as above; settings: 250 g ai/ha, Flood, applied to paddy water, evaluated after 13 days
Procedure, shortened: as §1

[4] = test system: barnyardgrass (Echinochloa crusgalli); assay: as above; settings: 250 g ai/ha, Flood, applied to paddy water, evaluated after 13 days
Procedure, shortened: as §1

[5] = test system: barnyardgrass (Echinochloa crus-galli); assay: Test A preemergence soil spray, visual injury rating 0-100; settings: 10 days
Procedure, shortened: (§2)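 Plants were grown in a loam soil-sand blend and treated with test chemical in a non-phytotoxic solvent mixture containing surfactant, either sprayed on soil preemergence or applied postemergence to 2-10 cm plants. After 10 days in a greenhouse, injury was scored visually against untreated controls, 0 meaning no effect and 100 complete control.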

[6] = test system: palmer (palmer amaranth, palmer pigweed, Amaranthus palmeri); assay: as above; settings: 10 days
Procedure, shortened: as §2

[7] = test system: ryegrass, Italian (italian ryegrass, Lolium multiflorum); assay: as above; settings: 10 days
Procedure, shortened: as §2

[8] = test system: wheat (Triticum aestivum); assay: as above; settings: 10 days
Procedure, shortened: as §2

[9] = test system: ragweed (common ragweed, Ambrosia artemisiifolia); assay: as above; settings: 10 days
Procedure, shortened: as §2

[10] = test system: corn (Zea mays); assay: as above; settings: 10 days
Procedure, shortened: as §2

[11] = test system: kochia (Bassia scoparia); assay: as above; settings: 10 days
Procedure, shortened: as §2

[12] = test system: green foxtail (Setaria viridis); assay: as above; settings: 10 days
Procedure, shortened: as §2

[13] = test system: oat, wild (wild oat, Avena fatua); assay: as above; settings: 10 days
Procedure, shortened: as §2

[14] = test system: blackgrass (Alopecurus myosuroides); assay: as above; settings: 10 days
Procedure, shortened: as §2

[15] = test system: soybean (Glycine max); assay: as above; settings: 10 days
Procedure, shortened: as §2

[16] = test system: barnyardgrass (Echinochloa crus-galli); assay: Test A postemergence application, visual injury rating 0-100
Procedure, shortened: as §2

[17] = test system: palmer (palmer amaranth, palmer pigweed, Amaranthus palmeri); assay: as above
Procedure, shortened: as §2

[18] = test system: ryegrass, Italian (italian ryegrass, Lolium multiflorum); assay: as above
Procedure, shortened: as §2

[19] = test system: wheat (Triticum aestivum); assay: as above
Procedure, shortened: as §2

[20] = test system: horseweed (Erigeron canadensis); assay: as above
Procedure, shortened: as §2

[21] = test system: ragweed (common ragweed, Ambrosia artemisiifolia); assay: as above
Procedure, shortened: as §2

[22] = test system: corn (Zea mays); assay: as above
Procedure, shortened: as §2

[23] = test system: kochia (Bassia scoparia); assay: as above
Procedure, shortened: as §2

[24] = test system: green foxtail (Setaria viridis); assay: as above
Procedure, shortened: as §2

[25] = test system: oat, wild (wild oat, Avena fatua); assay: as above
Procedure, shortened: as §2

[26] = test system: galium (catchweed bedstraw, Galium aparine); assay: as above
Procedure, shortened: as §2

[27] = test system: blackgrass (Alopecurus myosuroides); assay: as above
Procedure, shortened: as §2

[28] = test system: soybean (Glycine max); assay: as above
Procedure, shortened: as §2

[29] = 62 g ai/ha, 0 = no effect, 100 = complete control
[30] = 62 g ai/ha, postemergence, 10 days, 0 = no effect, 100 = complete control
[31] = Postemergence, 16 g ai/ha, greenhouse 10 days, 0 no effect, 100 complete control

CC1(C(=O)NC2CC=C(C(=O)NS(=O)(=O)c3ccccc3)C2)CN(c2cc(F)cc(F)c2)C(=O)O1 (racemic) [Compound 104]
40: Ragweed plant response rating (0 to 100 scale) [21, 31] | Foxtail, Green plant response rating (0 to 100 scale) [24, 31]
0: Plant response rating, Ducksalad (0 to 100 scale, 0 is no effect and 100 is complete control) [1] | Plant response rating, Sedge, Umbrella (0 to 100 scale, 0 is no effect and 100 is complete control) [2] | Plant response rating, Rice (0 to 100 scale, 0 is no effect and 100 is complete control) [3] | Plant response rating, Barnyardgrass (0 to 100 scale, 0 is no effect and 100 is complete control) [4] | Barnyardgrass plant response rating ([5]; 16 g ai/ha, 0 to 100 scale) | Pigweed, Palmer plant response rating ([6]; 16 g ai/ha, 0 to 100 scale) | Ryegrass, Italian plant response rating ([7]; 16 g ai/ha, 0 to 100 scale) | Wheat plant response rating ([8]; 16 g ai/ha, 0 to 100 scale) | Corn plant response rating ([10]; 16 g ai/ha, 0 to 100 scale) | Corn plant response rating (0-100) [10, 29] | Kochia plant response rating ([11]; 16 g ai/ha, 0 to 100 scale) | Foxtail, Green plant response rating ([12]; 16 g ai/ha, 0 to 100 scale) | Oat, Wild plant response rating ([13]; 16 g ai/ha, 0 to 100 scale) | Oat, Wild plant response rating (0-100) [13, 29] | Blackgrass plant response rating ([14]; 16 g ai/ha, 0 to 100 scale) | Blackgrass plant response rating (0-100) [14, 29] | Soybean plant response rating ([15]; 16 g ai/ha, 0 to 100 scale) | Soybean plant response rating (0-100) [15, 29] | Horseweed plant response rating (0 to 100 scale) [20, 31] | Corn plant response rating (0 to 100 scale) [22, 31] | Oat, Wild plant response rating (0 to 100 scale) [25, 31] | Blackgrass plant response rating (0 to 100 scale) [27, 31]
80: Pigweed, Palmer plant response rating (0 to 100 scale) [17, 31]
20: Barnyardgrass plant response rating (0-100) [5, 29] | Ryegrass, Italian plant response rating (0-100) [7, 29] | Wheat plant response rating (0-100) [8, 29] | Ragweed plant response rating ([9]; 16 g ai/ha, 0 to 100 scale) | Ragweed plant response rating (0-100) [9, 29] | Soybean plant response rating (0 to 100 scale) [28, 31]
60: Ragweed plant response rating (0-100) [21, 30] | Soybean plant response rating (0-100) [28, 30]
50: Kochia plant response rating (0-100) [11, 29] | Barnyardgrass plant response rating (0 to 100 scale) [16, 31] | Ryegrass, Italian plant response rating (0 to 100 scale) [18, 31]
100: Barnyardgrass plant response rating (0-100) [16, 30]
90: Pigweed, Palmer plant response rating (0-100) [17, 30] | Wheat plant response rating (0-100) [19, 30] | Corn plant response rating (0-100) [22, 30] | Kochia plant response rating (0-100) [23, 30] | Foxtail, Green plant response rating (0-100) [24, 30]
70: Ryegrass, Italian plant response rating (0-100) [18, 30] | Galium plant response rating (0-100) [26, 30] | Blackgrass plant response rating (0-100) [27, 30]
30: Pigweed, Palmer plant response rating (0-100) [6, 29] | Foxtail, Green plant response rating (0-100) [12, 29] | Wheat plant response rating (0 to 100 scale) [19, 31] | Horseweed plant response rating (0-100) [20, 30] | Kochia plant response rating (0 to 100 scale) [23, 31] | Oat, Wild plant response rating (0-100) [25, 30] | Galium plant response rating (0 to 100 scale) [26, 31]
